Assay results: PMC3315157 (Biochemistry, 2012)
“And” between values parts separate entries of the source, which are not always exact repeats. Equal entries are not always repeated. Where two headings read alike, the source gives them in different places.

Columns and labels:
Torpedo nAChR [1] = biological target: T1, Torpedo nAChR (Tetronarce californica, UniProt P02710+P02712+P02714+P02718); experiment: [125I]-SADU-3-72 competition binding assay
Torpedo nAChR [2] = biological target: T1, Torpedo nAChR; format: cell-based
Torpedo nAChR [3] = biological target: T1, Torpedo nAChR; experiment: biochemical; format: binding; conditions: for reduction of agonist-enhanced [125I]SADU-3-72 photolabeling within αV8-20K: 130 μM bupropion (separate experiment) or TCP
[4] = system: α1β1εδ (adult mouse muscle-type) nAChRs; conditions: read-out: IC50, impaired channel opening; binding to the resting nAChR; HEK-293 cells; cited from earlier work
[5] = desensitized state (Carb), TCP 130 μM, native nAChR-rich membranes, n=1
[6] = resting state (+α-BgTx), tetracaine 130 μM, native nAChR-rich membranes, n=1

T1 sequence (P02710 25-461): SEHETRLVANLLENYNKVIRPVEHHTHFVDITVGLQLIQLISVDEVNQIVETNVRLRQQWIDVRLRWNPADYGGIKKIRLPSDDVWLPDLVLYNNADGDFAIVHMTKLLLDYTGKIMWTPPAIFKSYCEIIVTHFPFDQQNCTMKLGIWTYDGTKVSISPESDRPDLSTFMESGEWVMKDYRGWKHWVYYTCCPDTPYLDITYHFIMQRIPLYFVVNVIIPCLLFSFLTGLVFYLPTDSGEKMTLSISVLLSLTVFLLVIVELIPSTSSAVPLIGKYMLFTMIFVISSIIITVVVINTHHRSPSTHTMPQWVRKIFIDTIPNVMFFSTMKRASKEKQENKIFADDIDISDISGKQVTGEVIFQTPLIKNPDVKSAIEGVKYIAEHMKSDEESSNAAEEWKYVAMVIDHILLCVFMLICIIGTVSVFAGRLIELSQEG
T1 sequence (P02712 25-493): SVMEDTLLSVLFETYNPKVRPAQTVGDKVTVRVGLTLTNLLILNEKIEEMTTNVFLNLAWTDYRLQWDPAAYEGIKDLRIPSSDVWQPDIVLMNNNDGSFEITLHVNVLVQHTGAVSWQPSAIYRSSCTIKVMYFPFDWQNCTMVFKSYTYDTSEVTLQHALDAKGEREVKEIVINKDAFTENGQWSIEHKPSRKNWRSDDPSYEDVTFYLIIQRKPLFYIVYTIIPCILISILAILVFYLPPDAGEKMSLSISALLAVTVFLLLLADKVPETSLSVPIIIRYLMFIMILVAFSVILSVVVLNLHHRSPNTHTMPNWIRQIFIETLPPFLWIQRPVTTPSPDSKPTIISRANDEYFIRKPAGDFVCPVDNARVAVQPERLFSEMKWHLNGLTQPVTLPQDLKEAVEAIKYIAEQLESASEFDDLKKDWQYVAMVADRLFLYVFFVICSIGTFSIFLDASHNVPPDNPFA
T1 sequence (P02714 18-506): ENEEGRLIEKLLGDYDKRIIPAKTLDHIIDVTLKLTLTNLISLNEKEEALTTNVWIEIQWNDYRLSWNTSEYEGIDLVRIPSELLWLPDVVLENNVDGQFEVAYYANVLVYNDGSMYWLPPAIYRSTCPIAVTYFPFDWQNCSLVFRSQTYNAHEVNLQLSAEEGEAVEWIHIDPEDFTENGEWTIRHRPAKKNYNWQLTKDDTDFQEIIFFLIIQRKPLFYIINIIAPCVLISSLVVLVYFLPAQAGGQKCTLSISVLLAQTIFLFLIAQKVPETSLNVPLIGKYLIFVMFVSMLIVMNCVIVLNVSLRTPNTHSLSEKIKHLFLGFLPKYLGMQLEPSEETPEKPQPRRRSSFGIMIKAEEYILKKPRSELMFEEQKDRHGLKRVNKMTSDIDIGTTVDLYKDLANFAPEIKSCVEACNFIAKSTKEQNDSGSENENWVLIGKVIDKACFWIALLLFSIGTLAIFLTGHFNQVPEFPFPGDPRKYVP
T1 sequence (P02718 22-522): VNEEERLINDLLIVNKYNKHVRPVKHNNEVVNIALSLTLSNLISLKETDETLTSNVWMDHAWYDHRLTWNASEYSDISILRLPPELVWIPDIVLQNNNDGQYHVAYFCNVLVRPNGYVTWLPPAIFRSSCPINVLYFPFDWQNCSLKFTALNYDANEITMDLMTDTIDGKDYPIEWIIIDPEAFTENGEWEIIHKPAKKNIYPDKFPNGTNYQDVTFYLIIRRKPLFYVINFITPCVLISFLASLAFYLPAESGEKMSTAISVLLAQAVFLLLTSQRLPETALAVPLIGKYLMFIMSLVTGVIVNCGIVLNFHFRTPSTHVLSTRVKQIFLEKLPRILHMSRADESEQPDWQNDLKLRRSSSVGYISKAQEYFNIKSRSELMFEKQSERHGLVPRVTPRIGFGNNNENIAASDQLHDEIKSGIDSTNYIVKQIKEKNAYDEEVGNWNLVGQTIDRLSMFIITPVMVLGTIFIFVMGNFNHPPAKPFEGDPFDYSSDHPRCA

SMILES: CC(NC(C)(C)C)C(=O)c1ccc(N=[N+]=[N-])c(I)c1 (racemic) [SADU-3-72, (±)-2-(N-tert-butylamino)-3′-[^125I]-iodo-4′-azidopropiophenone]
- IC50 (Torpedo nAChR [1]; read-out: IC50, inhibition of [125I]SADU-3-72 binding, affinity-purified, lipid-reconstituted nAChR, absence of Carb (resting state)): 2300 ± 700 nM

SMILES: CC(NC(C)(C)C)C(=O)c1cccc(Cl)c1 (racemic) [bupropion, (±)-2-(tert-butylamino)-1-(3-chlorophenyl) propan-1-one]
- IC50 (Torpedo nAChR [2]): 340 nM and 300 nM
- Hill coefficient nH of inhibition of ACh-induced currents (Torpedo nAChR [2]; co-applied with 50 μM ACh, n=7 oocytes): 0.98 ± 0.14
- IC50 (Torpedo nAChR [1]; IC50, inhibition of [125I]SADU-3-72 binding, native nAChR-rich membranes, desensitized state (400 μM Carb)): 1200 nM and 1000 nM
- fold higher affinity in the desensitized than in the resting state (Torpedo nAChR [1]; from inhibition of [125I]SADU-3-72 binding / photoincorporation): three-fold
- IC50 (Torpedo nAChR [3]; IC50, inhibition of δ subunit [125I]SADU-3-72 photolabeling, presence of Carb (desensitized state)): 2100 nM and 2000 nM
- reduction of agonist-enhanced [125I]SADU-3-72 photolabeling within αV8-20K (Torpedo nAChR [3]; desensitized state (Carb)): 70%
- IC50 [4]: 400 nM

SMILES: CC(=O)OCC[N+](C)(C)C [ACh, Acetylcholine]
- Hill coefficient nH, ACh dose-response curve (Torpedo nAChR [2]; n=1): 1.5

SMILES: c1csc(C2(N3CCCCC3)CCCCC2)c1 [TCP, 1-(1-(2-Thienyl)cyclohexyl) piperidine (tenocyclidine)]
- effect on [125I]SADU-3-72 labeling of δLeu265 (M2-9) (Torpedo nAChR [3]; desensitized state (400 μM Carb), 130 μM TCP, preparative photolabeling): eliminated
- reduction of agonist-enhanced [125I]SADU-3-72 photolabeling within αV8-20K (Torpedo nAChR [3]; desensitized state (Carb)): not inhibited
- effect on [125I]SADU-3-72 β subunit labeling (Torpedo nAChR [3]; [5]): unchanged
- increase of [125I]SADU-3-72 photolabeling in α-subunit (Torpedo nAChR [3]; [5]): ~ 15%
- effect on [125I]SADU-3-72 labeling in βV8-22/23K, γV8-24K and δV8-14K fragments (Torpedo nAChR [3]; desensitized state (Carb), TCP (140 μM in Figure 5 legend)): further inhibited labeling
- inhibition at 130 µM (Torpedo nAChR [3]; read-out: inhibition of [125I]SADU-3-72 photolabeling in γ-subunit): ~35%
- inhibition at 130 µM (Torpedo nAChR [3]; read-out: inhibition of [125I]SADU-3-72 photolabeling in δ-subunit): ~35%

SMILES: CCCCNc1ccc(C(=O)OCCN(C)C)cc1 [tetracaine]
- inhibition at 130 µM (Torpedo nAChR [3]; read-out: inhibition of [125I]SADU-3-72 labeling within αV8-20K fragment): 49%
- inhibition at 130 µM (Torpedo nAChR [3]; read-out: inhibition of [125I]SADU-3-72 labeling within βV8-22/23K fragment): 76%
- inhibition at 130 µM (Torpedo nAChR [3]; read-out: inhibition of [125I]SADU-3-72 labeling within γV8-24K fragment): 79%
- inhibition at 130 µM (Torpedo nAChR [3]; read-out: inhibition of [125I]SADU-3-72 labeling within δV8-14K fragment): 88%
- reduction of [125I]SADU-3-72 photolabeling in α-subunit (Torpedo nAChR [3]; [6]): < 5%
- reduction of [125I]SADU-3-72 photolabeling in β-subunit (Torpedo nAChR [3]; [6]): 55%
- reduction of [125I]SADU-3-72 photolabeling in γ-subunit (Torpedo nAChR [3]; [6]): 51%
- reduction of [125I]SADU-3-72 photolabeling in δ-subunit (Torpedo nAChR [3]; [6]): 73%
- inhibition of [125I]-SADU-3-72 photoincorporation within subunit fragments containing the M2 segments (Torpedo nAChR [3]; resting state, αV8-20, βV8-22, γV8-24 and δV8-14): 50–90%
